{"source": "ChEMBL document CHEMBL5550215", "about": "“Discovery of Novel Imidazo[1,2-a]pyridine-Based HDAC6 Inhibitors as an Anticarcinogen with a Cardioprotective Effect” (J Med Chem, 2024)", "key": {"HGC-27": {"system": "HGC-27", "experiment": "Antiproliferative activity against human HGC-27 cells assessed as inhibition of cell growth by MTT assay"}, "H9c2 [1]": {"system": "H9c2", "experiment": "Cardioprotective activity against H2O2 induced myocardial damage in rat H9c2 cells harbouring Ad.HDAC6 assessed as increase in cell viability at 8 uM by MTT assay", "type": "functional, cell-based"}, "MGC-803 [2]": {"system": "MGC-803", "experiment": "Induction of apoptosis in human MGC-803 cells assessed as early apoptotic cells at 0.5 uM measured after 48 hrs by Annexin V-EGFP and PI staining based flow cytometry analysis (reference value: 0.66%)", "type": "functional"}, "[3]": {"experiment": "Cmax in male Sprague-Dawley rat at 7 mg/kg,iv measured upto 8 hrs by UPLC-MS/MS analysis", "type": "ADME, organism-based", "conditions": "in vivo"}, "MGC-803 [4]": {"system": "MGC-803", "experiment": "Induction of apoptosis in human MGC-803 cells assessed as viable cells at 1 uM measured after 48 hrs by Annexin V-EGFP and PI staining based flow cytometry analysis (reference value: 92.3%)", "type": "functional", "conditions": "read-out: Activity"}, "H9c2 [5]": {"system": "H9c2", "experiment": "Cardioprotective activity in H2O2 induced myocardial injury in rat H9c2 cells assessed as downregulation of IL-18 mRNA level at upto 8 uM by q-PCR analysis", "type": "functional, cell-based"}, "MGC-803 [6]": {"system": "MGC-803", "experiment": "Induction of apoptosis in human MGC-803 cells assessed as necrotic cells at 0.5 uM measured after 48 hrs by Annexin V-EGFP and PI staining based flow cytometry analysis (reference value: 3.90%)", "type": "functional"}, "[7]": {"experiment": "Toxicity in C57BL/6 mouse assessed as appearance of inflammatory cell infiltration at 25 to 50 mg/kg, ip by H and E staining based analysis", "type": "organism-based", "conditions": "in vivo, dose 25-50 mg/kg"}, "MGC-803 [8]": {"system": "MGC-803", "experiment": "Antitumor activity against human MGC-803 cells xenografted in […] mouse model assessed as suppression of tumor mass at 25 to 50 mg/kg, ip measured upto 21 days with continuous administration for 5 days followed by two days break", "type": "functional, organism-based", "conditions": "dose 25-50 mg/kg, time <= 21.0 day"}, "MGC-803 [9]": {"system": "MGC-803", "experiment": "Induction of apoptosis in human MGC-803 cells assessed as late apoptotic cells at 2 uM measured after 48 hrs by Annexin V-EGFP and PI staining based flow cytometry analysis (reference value: 3.16%)", "type": "functional"}, "[10]": {"experiment": "Observed clearance in male Sprague-Dawley rat at 7 mg/kg,po measured upto 8 hrs by UPLC-MS/MS analysis", "type": "ADME, organism-based", "conditions": "in vivo"}, "Mus musculus [11]": {"system": "Mus musculus", "experiment": "Cardioprotective activity against myocardial ischemia/reperfusion induced C57BL/6J mouse model assessed as reduction in myocardial infarction area at 10 mg/kg (reference value: 72.19%)", "type": "functional", "parameters": "scale not given: the % may be the effect or the level left"}, "SGC-7901": {"system": "SGC-7901", "experiment": "Antiproliferative activity against human SGC-7901 cells assessed as inhibition of cell growth by MTT assay"}, "MGC-803 [12]": {"system": "MGC-803", "experiment": "Antitumor activity against human MGC-803 cells xenografted in […] mouse model assessed as suppression of tumor volume at 25 to 50 mg/kg, ip measured upto 21 days with continuous administration for 5 days followed by two days break", "type": "functional, organism-based", "conditions": "dose 25-50 mg/kg, time <= 21.0 day"}, "Mus musculus [13]": {"system": "Mus musculus", "experiment": "Cardioprotective activity against myocardial ischemia/reperfusion induced C57BL/6J mouse model assessed as effect on infarct size of mouse heart at 2.5 to 10 mg/kg by TTC staining based analysis", "type": "functional, organism-based", "conditions": "dose 2.5-10 mg/kg"}, "Histone deacetylase 1": {"target": "Histone deacetylase 1 (Homo sapiens, UniProt Q13547)", "sequence (Q13547 whole entry)": "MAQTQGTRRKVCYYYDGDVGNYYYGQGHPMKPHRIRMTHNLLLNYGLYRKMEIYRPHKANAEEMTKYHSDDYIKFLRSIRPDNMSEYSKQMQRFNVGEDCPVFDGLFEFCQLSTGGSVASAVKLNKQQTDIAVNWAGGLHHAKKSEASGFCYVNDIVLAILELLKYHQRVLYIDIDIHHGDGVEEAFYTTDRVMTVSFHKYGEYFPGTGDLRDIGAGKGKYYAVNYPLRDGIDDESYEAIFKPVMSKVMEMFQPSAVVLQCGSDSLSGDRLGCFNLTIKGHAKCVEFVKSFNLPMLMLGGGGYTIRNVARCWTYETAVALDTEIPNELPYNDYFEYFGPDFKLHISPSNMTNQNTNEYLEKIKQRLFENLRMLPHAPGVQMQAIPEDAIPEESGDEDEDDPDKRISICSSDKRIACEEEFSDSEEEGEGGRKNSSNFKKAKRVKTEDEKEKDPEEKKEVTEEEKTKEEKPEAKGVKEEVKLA", "experiment": "Induction of thermal stabilization of HDAC1 in human MGC-803 cells at 48 degree C st 20 uM incubated for 4 hrs by CETSA", "type": "cell-based"}, "Mus musculus [14]": {"system": "Mus musculus", "experiment": "Cardioprotective activity against myocardial ischemia/reperfusion induced C57BL/6J mouse model assessed as reduction in IL-1 beta expression at 2.5 to 10 mg/kg", "type": "functional, organism-based", "conditions": "dose 2.5-10 mg/kg"}, "PANC-1": {"system": "PANC-1", "experiment": "Antiproliferative activity against human PANC-1 cells assessed as inhibition of cell growth by MTT assay"}, "[15]": {"experiment": "AUC (0 to infinity) in male Sprague-Dawley rat at 7 mg/kg,po measured upto 8 hrs by UPLC-MS/MS analysis", "type": "ADME, organism-based", "conditions": "in vivo"}, "[16]": {"experiment": "AUClast in male Sprague-Dawley rat at 7 mg/kg,iv measured upto 8 hrs by UPLC-MS/MS analysis", "type": "ADME, organism-based", "conditions": "in vivo"}, "MGC-803 [17]": {"system": "MGC-803", "experiment": "Antitumor activity against human MGC-803 cells xenografted in […] mouse model assessed as decrease in HDAC6 expression administered as IP dose by Western blot analysis", "type": "functional, cell-based", "conditions": "dose 25-50 mg/kg"}, "MGC-803 [18]": {"system": "MGC-803", "experiment": "Induction of apoptosis in human MGC-803 cells assessed as early apoptotic cells at 1 uM measured after 48 hrs by Annexin V-EGFP and PI staining based flow cytometry analysis (reference value: 0.66%)", "type": "functional"}, "Mus musculus [19]": {"system": "Mus musculus", "experiment": "Cardioprotective activity against myocardial ischemia/reperfusion induced C57BL/6J mouse model assessed as reduction in ST-segment elevation at 2.5 to 10 mg/kg", "type": "functional, organism-based", "conditions": "dose 2.5-10 mg/kg"}, "[20]": {"experiment": "Half life in male Sprague-Dawley rat at 7 mg/kg,po measured upto 8 hrs by UPLC-MS/MS analysis", "type": "ADME, organism-based", "conditions": "in vivo"}, "MGC-803 [21]": {"system": "MGC-803", "experiment": "Antiproliferative activity against human MGC-803 cells assessed as inhibition of cell growth by MTT assay"}, "H9c2 [22]": {"system": "H9c2", "experiment": "Cardioprotective activity in H2O2 induced myocardial injury in rat H9c2 cells assessed as downregulation of IL-1 beta mRNA level at upto 8 uM by q-PCR analysis", "type": "functional, cell-based"}, "MGC-803 [23]": {"system": "MGC-803", "experiment": "Induction of apoptosis in human MGC-803 cells assessed as necrotic cells at 2 uM measured after 48 hrs by Annexin V-EGFP and PI staining based flow cytometry analysis (reference value: 3.90%)", "type": "functional"}, "TE-1": {"system": "TE-1", "experiment": "Antiproliferative activity against human TE-1 cells assessed as inhibition of cell growth by MTT assay"}, "MGC-803 [24]": {"system": "MGC-803", "experiment": "Induction of apoptosis in human MGC-803 cells assessed as late apoptotic cells at 1 uM measured after 48 hrs by Annexin V-EGFP and PI staining based flow cytometry analysis (reference value: 3.16%)", "type": "functional"}, "H9c2 [25]": {"system": "H9c2", "experiment": "Cardioprotective activity in H2O2 induced myocardial injury in rat H9c2 cells assessed as downregulation of IL-18 expression", "type": "functional, cell-based", "conditions": "dose <= 8.0 µM"}, "H9c2 [26]": {"system": "H9c2", "experiment": "Cardioprotective activity against H2O2 induced myocardial damage in rat H9c2 cells harbouring Ad.GFP assessed as increase in cell viability at 8 uM by MTT assay", "type": "functional, cell-based"}, "H9c2 [27]": {"system": "H9c2", "experiment": "Cardioprotective activity in H2O2 induced myocardial injury in rat H9c2 cells assessed as appearance of defined nuclear boundaries at 2 to 8 uM", "type": "functional, cell-based", "conditions": "dose 2-8 µM"}, "[28]": {"experiment": "Tmax in male Sprague-Dawley rat at 7 mg/kg,iv measured upto 8 hrs by UPLC-MS/MS analysis", "type": "ADME, organism-based", "conditions": "in vivo"}, "Mus musculus [29]": {"system": "Mus musculus", "experiment": "Cardioprotective activity against myocardial ischemia/reperfusion induced C57BL/6J mouse model assessed as alleviation of leukocyte infiltration at 10 mg/kg by H and E staining based analysis", "type": "functional, organism-based"}, "MGC-803 [30]": {"system": "MGC-803", "experiment": "Induction of apoptosis in human MGC-803 cells assessed as late apoptotic cells at 0.5 uM measured after 48 hrs by Annexin V-EGFP and PI staining based flow cytometry analysis (reference value: 3.16%)", "type": "functional"}, "[31]": {"experiment": "Observed apparent volume of distribution in male Sprague-Dawley rat at 7 mg/kg,po measured upto 8 hrs by UPLC-MS/MS analysis", "type": "ADME, organism-based", "conditions": "in vivo"}, "Mus musculus [32]": {"system": "Mus musculus", "experiment": "Cardioprotective activity against myocardial ischemia/reperfusion induced C57BL/6J mouse model assessed as reduction in IL-18 expression at 2.5 to 10 mg/kg", "type": "functional, organism-based", "conditions": "dose 2.5-10 mg/kg"}}, "note": "Activity calls are given as the source filed them. No cut-off for these calls is given here.", "data": [{"smiles": "O=C(NO)c1ccc(CNC(=O)c2cc(-c3ccc(F)cc3)cn3ccnc23)cc1", "values": [{"measurement": "IC50", "setting": "HGC-27", "result": 2.8, "unit": "µM"}, {"measurement": "Activity", "setting": "H9c2 [1]", "result": "Active"}, {"measurement": "Activity", "setting": "MGC-803 [2]", "result": 0.52, "unit": "%"}, {"measurement": "Cmax", "setting": "[3]", "result": 807, "unit": "ng/mL"}, {"measurement": "viability at 1 µM", "setting": "MGC-803 [4]", "result": 77.2, "unit": "%"}, {"measurement": "Activity", "setting": "H9c2 [5]", "result": "Active"}, {"measurement": "Activity", "setting": "MGC-803 [6]", "result": 5.97, "unit": "%"}, {"measurement": "Activity", "setting": "[7]", "result": "Non-Toxic"}, {"measurement": "Activity", "setting": "MGC-803 [8]", "result": "Active"}, {"measurement": "Activity", "setting": "MGC-803 [9]", "result": 24.2, "unit": "%"}, {"measurement": "CL/F", "setting": "[10]", "result": 1590, "unit": "mL/min/kg"}, {"measurement": "Activity", "setting": "Mus musculus [11]", "result": 37.64, "unit": "%"}, {"measurement": "IC50", "setting": "SGC-7901", "result": 8.34, "unit": "µM"}, {"measurement": "Activity", "setting": "MGC-803 [12]", "result": "Active"}, {"measurement": "Activity", "setting": "Mus musculus [13]", "result": "inactive"}, {"measurement": "Activity", "setting": "Histone deacetylase 1", "result": "inactive"}, {"measurement": "Activity", "setting": "Mus musculus [14]", "result": "Active"}, {"measurement": "IC50", "setting": "PANC-1", "result": 3.79, "unit": "µM"}, {"measurement": "AUC(0-inf)", "setting": "[15]", "result": 105, "unit": "ng·h/mL"}, {"measurement": "AUC(0-t) at 8 h", "setting": "[16]", "result": 740, "unit": "ng·h/mL"}, {"measurement": "Activity", "setting": "MGC-803 [17]", "result": "Dose-Dependent Effect"}, {"measurement": "Activity", "setting": "MGC-803 [18]", "result": 0.48, "unit": "%"}, {"measurement": "Activity", "setting": "Mus musculus [19]", "result": "Active"}, {"measurement": "half-life", "setting": "[20]", "result": 3.58, "unit": "h"}, {"measurement": "IC50", "setting": "MGC-803 [21]", "result": 0.95, "unit": "µM"}, {"measurement": "Activity", "setting": "H9c2 [22]", "result": "Active"}, {"measurement": "Activity", "setting": "MGC-803 [23]", "result": 4.83, "unit": "%"}, {"measurement": "IC50", "setting": "TE-1", "result": 4.5, "unit": "µM"}, {"measurement": "Activity", "setting": "MGC-803 [24]", "result": 17.6, "unit": "%"}, {"measurement": "Activity", "setting": "H9c2 [25]", "result": "Dose-Dependent Effect"}, {"measurement": "Activity", "setting": "H9c2 [26]", "result": "Active"}, {"measurement": "Activity", "setting": "H9c2 [27]", "result": "Active"}, {"measurement": "Tmax", "setting": "[28]", "result": 5, "unit": "min"}, {"measurement": "Activity", "setting": "Mus musculus [29]", "result": "Active"}, {"measurement": "Activity", "setting": "MGC-803 [30]", "result": 15, "unit": "%"}, {"measurement": "Vz", "setting": "[31]", "result": 492.21671, "unit": "L/kg"}, {"measurement": "Activity", "setting": "Mus musculus [32]", "result": "Active"}]}]}
